IC50 data for five compounds are collected here from BindingDB's records for doi:10.1016/0960-894X(95)00135-G (1995).

Structures are written as SMILES. pIC50: −log10 of the molar value.

For orientation: pIC50 means the negative decadic logarithm of the IC50, by convention in mol/L. The low end stands for a high IC50, the high end for a low IC50.

The nature of this test: In vitro inhibitory activity against human neutrophil leukotriene B4 (LTB4) induced Chemotaxis.
`CC(Oc1ccc2c(c1)OC[C@@H](Cc1ccccn1)[C@@H]2O)c1ccc2ccccc2n1` (stereo partly drawn) [(3R,4S)-3-Pyridin-2-ylmethyl-7-(1-quinolin-2-yl-ethoxy)-chroman-4-ol] gave a pIC50 of 6.66.
With `C[C@@H](Oc1ccc2c(c1)OC[C@@H](Cc1cccnc1)[C@@H]2O)c1ccc2ccccc2n1` [(3R,4S)-3-Pyridin-3-ylmethyl-7-((R)-1-quinolin-2-yl-ethoxy)-chroman-4-ol], the pIC50 is 5.47.
The figure for `C[C@H](Oc1ccc2c(c1)OC[C@@H](Cc1cccnc1)[C@@H]2O)c1ccc2ccccc2n1` [(3R,4S)-3-Pyridin-3-ylmethyl-7-((S)-1-quinolin-2-yl-ethoxy)-chroman-4-ol] is 5.21; for `CC(Oc1ccc2c(c1)OC[C@H](Cc1ccccn1)[C@@H]2O)c1ccc2ccccc2n1` (stereo partly drawn) [(3S,4S)-3-Pyridin-2-ylmethyl-7-(1-quinolin-2-yl-ethoxy)-chroman-4-ol] it is 4.85; for `CC(Oc1ccc2c(c1)OC[C@H](Cc1cccnc1)[C@@H]2O)c1ccc2ccccc2n1` (stereo partly drawn) [(3S,4S)-3-Pyridin-3-ylmethyl-7-(1-quinolin-2-yl-ethoxy)-chroman-4-ol] it is 4.42.
